Laboratory results taken from BindingDB's records for doi:10.1016/j.bmc.2019.115193 (Stanford University, 2020).

Assay: Inhibition of human DYRK1A transfected in HEK293T cells co-transfected with Renilla plasmid, pGL3-NFAT and NFATc1 assessed as derepression of NFAT-dependent luciferase activity measured after 48 hrs by luciferase assay

EC50: 1530 nM
Compound: CCOC(=O)c1cnc2ccc(-c3ccnc(C)c3)nc2c1N[C@H]1CC[C@H](CN(C)C)CC1
